Values joined by “and” are separate entries in the source; they are usually repeats but may differ in a detail not shown here. Equal values may be shown once.
Experiments:
PARP = assay: Immunoblot of PARP protein integrity in TLT cells; assay type: cell-based, murine; conditions: 5 µM plus 1 mM ascorbate, 4 h
Procedure: Cancer cells were incubated for 4 h with 5 µM menadione (K3) or 15 either in the absence or in the presence of 1 mM ascorbate (Asc). Ctl represents control untreated cells. * p < 0.05 as compared to control conditions. Cancer cells were incubated for 4 h in the absence and in the presence of compounds. Afterward, cells were washed twice with ice-cold PBS and then resuspended in RIPA lysis buffer supplemented with 1% protease inhibitor cocktail (Sigma–Aldrich, St. Louis, MO, USA) and 3% phosphatase inhibitor cocktail (Calbiochem, Darmstadt, Germany). Treatment of samples and electrophoresis conditions were conducted as previously reported. Mouse monoclonal primary antibodies against hsp90α/β C-terminus (F8), and against β-actin (clone AC-15), were purchased from Santa Cruz Biotechnology (Santa Cruz, CA, USA) and from Abcam (Cambridge, UK), respectively. Rabbit polyclonal antibodies against PARP were purchased from BD Biosciences (San Diego, CA, USA). Goat anti-rabbit antibody and rabbit anti-mouse polyclonal antibody were purchased respectively from Chemicon International (Temecula, CA, USA) and DakoCytomation (Glostrup, Denmark).

[1] = tested on: transplantable primary liver tumor (TLT); assay: In vivo antitumor activity in TLT-bearing mice; conditions: TLT-bearing NMRI mice
Procedure: To go one-step further, we assessed the effect of the quinone derivative 15 in the TLT-bearing mice model. The dose of 15 used in this study (i.e., 10 mg/kg) was calculated according to doses of menadione, previously used by Verrax et al.. In mice treated with 15, the calculated mean survival time was 24.0 days as compared to 21.9 days in control untreated-animals, representing an increase in life span of 9.6 % (Figure 3). Although this ILS represents a marginal effect as compared to a minimum optimal effect […], a small trend can be inferred supporting a potential protective activity by 15, that requires to be further confirmed. […] To go further, studies are intended in the near future using a larger range of doses of 15.
Figure 3 Kaplan–Meier diagram in groups of TLT-bearing NMRI mice receiving intraperitoneal (i.p.) saline (control untreated animals). Compound 15 was also i.p. administered as 10 mg/kg body weight, 24 h after i.p. transplantation of TLT cells.
Young adult male NMRI mice (25–30 g) were obtained from Janvier Labs (Saint-Berthevin, France). After their placement at the University Animal Facilities, animals were randomized according to their body weight. They were housed in groups of five mice per cage (40 × 25 × 15 cm^3) in a constant temperature environment (22 °C) with alternating 12 h day/night cycles receiving standard food (UAR, Villemoisson-sur-Orge, France) and tap water ad libitum.
Taper et al. first observed the transplantable primary liver tumor (TLT) in 1966 in a two-month old female Swiss Webster mouse. […] Fritzler et al. further characterized the ultrastructure of TLT hepatoma ascites cells. Regarding our experimental conditions, the TLT tumor was maintained by weekly intraperitoneal (i.p.) transplantation (10^4 cells/mice). […] Then, mice mortality was daily recorded. […]
The antitumor activity was calculated according to Geran et al. using the mean survival time (m.s.t.) at day 30 and the increase in life span (ILS) calculated as ILS = [([…]) − 1] × 100. […]

T24 cells = assay: Clonogenic assay; assay type: cell-based, human; conditions: for cell growth compared to control conditions (100%), in brackets / number of colony forming units (CFUs): T24 cells; for number of colony forming units (CFUs): 24 h treatment, 10 days growth
Procedure: Indeed, at a dose of 0.25 µM, it decreased from 195 to 72 the number of CFUs. Otherwise, it inhibits the proliferation of T24 cells by 63% as compared to the control untreated cells. […] The percentages of the observed cell growth compared to control conditions (100%) are indicated in brackets. […] Cells were allowed to adhere overnight, and then treated with quinones for 24 h. Afterward, they were washed with warm PBS, given fresh medium, and allowed to grow for 10 days. Clonogenic survival was determined by fixing and staining colonies using crystal violet and further counting their number. The number of colonies calculated under control conditions was set as 100%.

DU-145 (prostate) cells = tested on: DU-145 (prostate) cells; design: method as in doi:10.1016/j.tetlet.2015.07.034; conditions: read-out: IC50 ± SEM DU-145, MTT, data from Valderrama et al. ref 16; cited from earlier work
T24 (bladder) cells = tested on: T24 (bladder) cells; design: method as in doi:10.1016/j.tetlet.2015.07.034; conditions: MTT, data from Valderrama et al. ref 16, read-out: IC50 ± SEM T24; cited from earlier work

What does the source list for `Cc1ccc2c(c1)SC1=NC3=C(C(=O)c4ccccc4C3=O)C(C)(O)N12` (stereo not shown) [Compound 15]?
PARP degradation (PARP): not PARP degradation; mean survival time (m.s.t.) ([1]; 10 mg/kg i.p. single dose 24 h after i.p. transplantation, control 21.9 days): 24.0 days; increase in life span (ILS) ([1]; 10 mg/kg i.p. single dose, vs control untreated animals): 9.6%; mean of individual mouse survival ([1]; 10 mg/kg i.p., control 21.2 ± 1.6 days, t-test p = 0.262, no significant difference): 22.8 ± 6.1 days; inhibition at 0.25 µM (T24 cells; Homo sapiens, T-24, clonogenic assay, 0.25 µM, read-out: inhibition of the proliferation of T24 cells as compared to control untreated cells): 63%; cell growth compared to control conditions (100%), in brackets (T24 cells; 0.025 µM): 92%; number of colony forming units (CFUs) (T24 cells; 0.025 µM): 180 ± 11 CFUs; cell growth compared to control conditions (100%), in brackets (T24 cells; 0.125 µM): 83%; number of colony forming units (CFUs) (T24 cells; 0.125 µM): 162 ± 18 CFUs; cell growth compared to control conditions (100%), in brackets (T24 cells; 0.25 µM): 37%; number of colony forming units (CFUs) (T24 cells; 0.25 µM): 72 CFUs and 72 ± 5 CFUs; cell growth compared to control conditions (100%), in brackets (T24 cells; 1.25 µM): 11%; number of colony forming units (CFUs) (T24 cells; 1.25 µM): 22 ± 9 CFUs; cell growth compared to control conditions (100%), in brackets (T24 cells; 2.5 µM): 8%; number of colony forming units (CFUs) (T24 cells; 2.5 µM): 16 ± 3 CFUs; cell growth compared to control conditions (100%), in brackets (T24 cells; 5.0 µM): 1%; number of colony forming units (CFUs) (T24 cells; 5.0 µM): 2 ± 1 CFUs; IC50 (DU-145 (prostate) cells): 110 ± 30 nM; IC50 (T24 (bladder) cells): 220 ± 60 nM

— publication PMC7071032, “In Vitro Inhibition of Hsp90 Protein by Benzothiazoloquinazolinequinones Is Enhanced in The Presence of Ascorbate. A Preliminary In Vivo Antiproliferative Study” (Molecules, 2020)
